One may read the inhibition as the change of the read-out against control, counted positive when it falls.

One experiment concerns dulcitol accumulation. Kind of experiment: Galactosemic rats, % lowering of dulcitol (galactitol) accumulation in vivo. The settings on record: for % Lowering dulcitol accumulation IN VIVO, D: diaphragm; for % Lowering dulcitol accumulation IN VIVO, D / % Lowering dulcitol accumulation IN VIVO, L: 4 days; for % Lowering dulcitol accumulation IN VIVO, L: lens. The arrangement: species or system Sprague-Dawley rats. The text has this:
Such experiments are exemplified hereinbelow after the listing of the following general comments pertaining to these experiments:
(a) Four or more groups of six male rats, 50-70 g, Sprague-Dawley strain, were used. The first group, the control group, was fed a mixture of laboratory chow (rodent Laboratory Chow, Purina) and glucose at 20% (w/w %) concentration. […] The test compound was either admixed to the diet or administered by gavage. In experiments involving compound administration in the diet, the average dose administered was calculated from the actual food intake of the animals in each group. The concentration of galactose in the diet of the treated groups was the same as that for the untreated galactosemic group.
(b) After four days, the animals were killed by decapitation. The eyeballs were removed and punctured with a razor blade; the freed lenses were rolled gently on filter paper and weighed. The sciatic nerves were dissected as completely as possible and weighed. Both tissues when frozen can be kept up to two weeks before being analyzed for galactitol.
Only two minor reagent changes were made: (a) the rinsing mixture was an aqueous 5% (w/v) trichloroacetic acid solution and (b) the stock solution was prepared by dissolving 25 mg of dulcitol in 100 mL of an aqueous trichloroacetic acid solution. [N.B.: For each experiment the average value found in the tissue from rats fed the glucose diet was subtracted from the individual values found in the corresponding tissue in galactose-fed rats to obtain the amount of polyol accumulated.]
The figures under L, N, and D represent the percentage decrease of galactitol accumulation in the tissues of the lens, sciatic nerve, and diaphragm, respectively, for treated rats as compared to untreated rats.

The next experiment concerns the target T1, aldose reductase (Bos taurus, UniProt P16116).
T1 construct: preparation of the enzyme from bovine lens; from tissue; host or cells: bovine lens
Kind of experiment: In vitro aldose reductase inhibition (modified Hayman and Kinoshita procedure, enzyme from bovine lens). It is filed as biochemical. The settings on record: for inhibition at 0.04 µM: read-out: % Inhibition IN VITRO 4 × 10^-8 M; for inhibition at 10 µM: read-out: % Inhibition IN VITRO 10^-5 M; for inhibition at 1 µM: read-out: % Inhibition IN VITRO 10^-6 M; for inhibition at 0.1 µM: read-out: % Inhibition IN VITRO 10^-7 M. The text has this: In the present case the procedure of Hayman and Kinoshita was modified in that the final chromatography step was omitted in the preparation of the enzyme from bovine lens.

The subject of experiment [1] is Sciatic Nerve Polyol Accumulation. Kind of experiment: Two-Week Streptozocin-Diabetic Rat Model, % lowering of sciatic nerve polyol accumulation. It is filed as in vivo, Sprague-Dawley rats. The settings on record: gavage, 14 days. The text has this:
A second in vivo model examined the effect of the compounds of the present invention on sorbitol accumulation in the tissues of 14-day streptozocin (STZ) (Upjohn) diabetic rats.
In each of the studies male Sprague-Dawley rats from Charles River Labs, Kingston, NY, weighing 200 to 250 g, were used. The animals were weighed and observed for 5 days prior to the start of the study.
In each study the rats were randomly assigned by weight into groups of 15 animals except for group I which contained 8 animals. The groups were treated as follows:
Group II: STZ, 110 mg/kg i.p.
Group IV: STZ, 110 mg/kg i.p. followed by various doses of a compound of the present invention given by gavage for 14 days, beginning on the day of induction of diabetes.
Following an overnight fast (water ad lib) the animals in groups II-IV were given by i.p. injection 110 mg STZ per kg body weight. The STZ was dissolved in cold citric acid, 0.03M, pH 4.5 and injected within 5 minutes of being dissolved. Control rats (group I) were injected with buffer only. One hour following the injection, standard laboratory chow (Rodent lab chow 5001, Purina) was placed in the cages.
Two days after STZ injection plasma glucose levels (from the tail vein) were determined following a 4 hour fast. Excluded from the study were animals whose plasma glucose was below 300 mg/dl. Control animals with plasma glucose levels greater than 200 mg/dl were also excluded.
On the morning of the 14th day following STZ injection the animals were fasted 4 hours prior to sacrificing by decapitation. The blood was collected into heparin containing tubes and placed on ice. Both lenses and sciatic nerves were removed immediately, weighed, frozen, and stored at -20° C. until analyzed for sorbitol. The RBCs were collected by centrifugation, the plasma was removed and the cells were washed once with 10 volumes of cold saline. The washed packed RBCs were divided into 1 mL aliquots, extracted with cold perchloric acid and the acid extracts were stored at -20° C. until analyzed for sorbitol.

Experiment [2] has the same test system. The experiment is described as above. It is filed as in vivo, Sprague-Dawley rats. Conditions: gavage, 14 days. The source holds these as a separate data set.
Setting [3] is: 15 mg/kg, N.S. = not significant.
[4] abbreviates: 27 mg/kg, N.S. = not significant.
[5] abbreviates: 5.2 mg/kg, N.S. = not significant.

Turning to `COC(=O)N(CC(=O)O)C(=O)c1c(Br)ccc2c(C(F)(F)F)c(OC)ccc12` [Example 5, N-[[2-Bromo-6-methoxy-5-(trifluoromethyl)-1-naphthalenyl]carbonyl]-N-(methoxycarbonyl)glycine], in the experiment with dulcitol accumulation (51 mg/kg), the “% Lowering dulcitol accumulation IN VIVO, D” value turned out to be 62%. Moreover, the “% Lowering dulcitol accumulation IN VIVO, L” value in the experiment with dulcitol accumulation (51 mg/kg, N.S. = not significant) is reported as “N.S”. For the same compound, on aldose reductase, the inhibition at 0.04 µM stood at 54%, the inhibition at 10 µM was determined as 97%, the inhibition at 1 µM was found to be 92% and the inhibition at 0.1 µM is 77%.

For `COC(=O)N(CC(=O)O)C(=O)c1c(Cl)ccc2c(C(F)(F)F)c(OC)ccc12` [Example 4, N-[[2-Chloro-6-methoxy-5-(trifluoromethyl)-1-naphthalenyl]carbonyl]-N-(methoxycarbonyl)glycine], in the experiment on dulcitol accumulation (26 mg/kg), the “% Lowering dulcitol accumulation IN VIVO, D” value is recorded as 68%. In the experiment with dulcitol accumulation (26 mg/kg, N.S. = not significant), the “% Lowering dulcitol accumulation IN VIVO, L” value was “N.S”. Moreover, at aldose reductase, the inhibition at 0.04 µM is 57%, the inhibition at 10 µM was 98%, the inhibition at 1 µM came to 95% and the inhibition at 0.1 µM was determined as 85%.

Consider `CCOC(=O)N(CC(=O)O)C(=O)c1c(F)ccc2c(C(F)(F)F)c(OC)ccc12` [Example 3, N-(Ethoxycarbonyl)-N-[[2-fluoro-6-methoxy-5-(trifluoromethyl)-1-naphthalenyl]carbonyl]glycine], for which, in the experiment on dulcitol accumulation (15 mg/kg), the “% Lowering dulcitol accumulation IN VIVO, D” value is 59%. For the same compound, the “% Lowering dulcitol accumulation IN VIVO, D” value in the experiment on dulcitol accumulation (25 mg/kg) was 65%. In addition, the “% Lowering dulcitol accumulation IN VIVO, L” value with dulcitol accumulation (setting [3]) is “N.S”. For the same compound, the “% Lowering dulcitol accumulation IN VIVO, L” value in the experiment with dulcitol accumulation (25 mg/kg, N.S. = not significant) is recorded as “N.S”. Also, on aldose reductase, the inhibition at 0.04 µM turned out to be 67%, the inhibition at 10 µM turned out to be 99%, the inhibition at 1 µM stood at 95% and the inhibition at 0.1 µM turned out to be 87%.

For `CCOC(=O)N(CC(=O)O)C(=O)c1c(OCC(F)(F)F)ccc2c(C(F)(F)F)c(OC)ccc12` [Example 7, N-(Ethoxycarbonyl)-N-[[6-methoxy-2-(2,2,2-trifluoroethoxy)-5-(trifluoromethyl)-1-naphthalenyl]carbonyl]glycine], in the experiment on dulcitol accumulation (27 mg/kg), the “% Lowering dulcitol accumulation IN VIVO, D” value worked out at 39%. Moreover, the “% Lowering dulcitol accumulation IN VIVO, L” value with dulcitol accumulation (setting [4]) is “N.S”. Besides, on aldose reductase, the inhibition at 0.04 µM worked out at 47%, the inhibition at 10 µM amounted to 98%, the inhibition at 1 µM came out at 90% and the inhibition at 0.1 µM amounted to 78%.

As for `CCOC(=O)N(CC(=O)O)C(=O)c1c(Cl)ccc2c(C(F)(F)F)c(OC)ccc12` [Example 8, N-[[2-Chloro-6-methoxy-5-(trifluoromethyl)-1-naphthalenyl]carbonyl]-N-(ethoxycarbonyl)glycine], the “% Lowering dulcitol accumulation IN VIVO, D” value in the experiment on dulcitol accumulation (50 mg/kg) was 47%. The “% Lowering dulcitol accumulation IN VIVO, L” value in the experiment on dulcitol accumulation (50 mg/kg, N.S. = not significant) is “N.S”. Besides, at aldose reductase, the inhibition at 0.04 µM came to 47% and the inhibition at 0.1 µM turned out to be 79%.

As for `COC(=O)N(CC(=O)O)C(=O)c1c(OCC(F)(F)F)ccc2c(C(F)(F)F)c(OC)ccc12` [Example 6, N-[[6-Methoxy-2-(2,2,2-trifluoroethoxy)-5-(trifluoromethyl)-1-naphthalenyl]carbonyl]-N-(methoxycarbonyl)glycine], the “% Lowering dulcitol accumulation IN VIVO, D” value in the experiment with dulcitol accumulation (27 mg/kg) is 49%. Besides, in the experiment with dulcitol accumulation (setting [4]), the “% Lowering dulcitol accumulation IN VIVO, L” value is reported as “N.S”. Besides, at aldose reductase, the inhibition at 0.04 µM stood at 56% and the inhibition at 0.1 µM was 83%.

As for `COc1ccc2c(C(=S)N(C)CC(=O)O)cccc2c1C(F)(F)F` [Tolrestat, N-[[6-methoxy-5-(trifluoromethyl)-1-naphthalenyl]thioxo-methyl]-N-methylglycine, reference compound], the “% Lowering of Sciatic Nerve Polyol Accumulation, Sorbitol (%)” value in experiment [1] (6 mg/kg) was found to be 80%. Besides, in the experiment with dulcitol accumulation (9 mg/kg, N.S. = not significant), the “% Lowering dulcitol accumulation IN VIVO, L” value is “N.S”. Moreover, in experiment [2] (6 mg/kg), the “% Lowering of Sciatic Nerve Polyol Accumulation, Fructose (%)” value came out at 63%.

As to `COC(=O)N(CC(N)=O)C(=O)c1c(F)ccc2c(C(F)(F)F)c(OC)ccc12` [Example 2, [[[2-Fluoro-6-methoxy-5-(trifluoromethyl)-1-naphthalenyl]carbonyl](methoxycarbonyl)amino]acetamide], in the experiment with dulcitol accumulation (setting [5]), the “% Lowering dulcitol accumulation IN VIVO, D” value is listed as “N.S” and the “% Lowering dulcitol accumulation IN VIVO, L” value is given as “N.S”. In the experiment with dulcitol accumulation (10.4 mg/kg), the “% Lowering dulcitol accumulation IN VIVO, D” value was found to be 23%. In addition, the “% Lowering dulcitol accumulation IN VIVO, L” value in the experiment on dulcitol accumulation (10.4 mg/kg, N.S. = not significant) was “N.S”. For the same compound, at aldose reductase, the inhibition at 10 µM turned out to be 2% and the inhibition at 1 µM was determined as 0%.

As to `CCOC(=O)N(CC(=O)O)C(=O)c1c(Br)ccc2c(C(F)(F)F)c(OC)ccc12` [Example 9, N-[[2-Bromo-6-methoxy-5-(trifluoromethyl)-1-naphthalenyl]carbonyl]-N-(ethoxycarbonyl)glycine], in the experiment with dulcitol accumulation (43 mg/kg), the “% Lowering dulcitol accumulation IN VIVO, D” value came to 27%. Also, the “% Lowering dulcitol accumulation IN VIVO, L” value in the experiment on dulcitol accumulation (43 mg/kg, N.S. = not significant) is on record as “N.S”. Further, on aldose reductase, the inhibition at 0.04 µM is 52%, the inhibition at 10 µM is 98%, the inhibition at 1 µM was determined as 93% and the inhibition at 0.1 µM was determined as 76%.

Take `COC(=O)N(CC(=O)O)C(=O)c1c(F)ccc2c(C(F)(F)F)c(OC)ccc12` [Example 1, N-[[2-fluoro-6-methoxy-5-(trifluoromethyl)-1-naphthalenyl]carbonyl]-N-(methoxycarbonyl)glycine]: the “% Lowering of Sciatic Nerve Polyol Accumulation, Sorbitol (%)” value in experiment [1] (2 mg/kg) is given as 38%; in experiment [1] (5 mg/kg), 39%; in experiment [1] (10 mg/kg) it was 85%; in experiment [1] (15 mg/kg), 85%. In addition, in the experiment on dulcitol accumulation (10 mg/kg/day vs tolrestat at 9 mg/kg/day, sciatic nerve), the “results in the sciatic nerve compared with tolrestat” value is listed as “comparable results”. Also, the results for the “% Lowering dulcitol accumulation IN VIVO, D” value in the experiment with dulcitol accumulation (5 mg/kg) and in the experiment on dulcitol accumulation (10 mg/kg) were 52% and 62%, respectively. Besides, the “% Lowering dulcitol accumulation IN VIVO, L” value with dulcitol accumulation (5 mg/kg, N.S. = not significant) was “N.S”; in the experiment on dulcitol accumulation (10 mg/kg, N.S. = not significant) it was “N.S”; with dulcitol accumulation (14 mg/kg, N.S. = not significant) it was “N.S”; in the experiment on dulcitol accumulation (setting [3]) it was “N.S”. Further, the “% Lowering of Sciatic Nerve Polyol Accumulation, Fructose (%)” value came out at 22% in experiment [2] (2 mg/kg), 36% in experiment [2] (5 mg/kg), 72% in experiment [2] (10 mg/kg) and 86% in experiment [2] (15 mg/kg). In addition, at aldose reductase, the inhibition at 0.04 µM was determined as 59%. Further, on aldose reductase, the inhibition at 10 µM worked out at 99%. Also, on aldose reductase, the inhibition at 1 µM turned out to be 95%. For the same compound, the inhibition at 0.1 µM at aldose reductase came out at 86%.

Values taken from patent publication US4820727A, “N-acyl-N-naphthoylglycines as aldose reductase inhibitors” (American Home Products Corporation, priority 1987, dated 1989).
